Reference: PMC12627933, “A First-In-Human Study of the SUMOylation Inhibitor Subasumstat in Patients with Advanced/Metastatic Solid Tumors or Relapsed/Refractory Hematologic Malignancies” (Cancer Research Communications, 2025)

Experiments:
[1] = system: advanced/metastatic solid tumors and relapsed/refractory hematologic malignancies; test: Clinical activity (RECIST v1.1 / Lugano criteria); assay type: in vivo, human; details: for DCR: 95% CI; for Patients with best response of SD: 90 mg twice weekly
Procedure: Disease response and progression were assessed for up to 48 months using CT and/or MRI scans with intravenous contrast and ^18fluorodeoxyglucose-PET imaging according to RECIST v1.1 criteria for solid tumors or Lugano criteria for lymphoma response ([21]).
It was anticipated that approximately 70 DLT-evaluable patients would be enrolled for dose escalation. The safety analysis set included all patients who received at least one dose, even if incomplete, of subasumstat. The tumor response–evaluable set included patients who received at least one dose of subasumstat, had sites of measurable disease at baseline and one post-baseline disease assessment, or discontinued treatment because of symptomatic deterioration or death prior to post-baseline evaluation. The overall response rate (ORR) was defined as the proportion of patients who achieved complete response and partial response (PR) during the study. The disease control rate (DCR) was defined as the proportion of patients who achieved […] as per RECIST v1.1 for solid tumors or Lugano classification for lymphomas. Both ORR and DCR were estimated with two-sided 95% exact binomial confidence intervals (CI). Progression-free survival was summarized descriptively using the Kaplan–Meier method.

SUMO2/3 conjugates = test: SUMOylation pathway inhibition: decrease in SUMO2/3 conjugates in blood lymphocytes, skin and tumor; assay type: in vivo, human
Procedure: Blood samples for subasumstat–SUMO adduct formation and SUMO2/3 inhibition assessments were collected before dose and at 1, 4, and 8 hours after the infusion on C1D1 and C1D8. Blood samples for additional biomarker analyses were collected before dose on C1D1 and C1D8 and at 4, 8, and 24 hours after infusion on C1D1 and C1D8. Skin biopsies (used as surrogate tissue for solid tumors) were collected at screening and on C1D8 at 2 hours (±30 minutes) after end of infusion, and tumor biopsies were collected at screening and cycle 2 day 8 (C2D8; +7 days; whenever possible). In blood samples, a custom flow cytometry assay was utilized for detecting target engagement and SUMOylated protein levels in lymphocytes (including T-, B-, and NK-cell subsets). The assay included a PE-conjugated antibody specifically recognizing the SUMO–subasumstat adduct (MIL-113, anti–cysteinyl-TAK-981, Epitomics; refs. [14], [15], [22]) and an AF488-conjugated antibody recognizing SUMO2/3 conjugates (MBL International, cat. #M114-3, RRID: AB_592769). Peripheral blood cells were lysed/fixed, permeabilized (BD Biosciences), and stained with MIL-113 and M114-3 and with antibodies against CD45, CD3, CD19, CD16/CD56, and CD14. IHC assays for SUMO–subasumstat adduct and SUMO2/3 inhibition in skin biopsies and tumors were performed using MIL-113 and M114-3 antibodies. Activation of the IFNI pathway was assessed in peripheral blood by analysis of gene expression data (PanCancer IO 360 panel by NanoString for phase I and whole-transcriptome RNA sequencing data for phase II). Type I IFN gene signature was computed using geometric mean of the following genes: CCL2, CXCL10, DDX58, IRF7, ISG15, STAT1, and STAT2. These seven IFNI-regulated genes were selected prior to the trial, based on in vitro studies of the effect of subasumstat on human blood from 10 healthy donors analyzed on the NanoString PanCancer IO 360 panel. Plasma chemokines and cytokines were measured using the MesoScale Discovery platform (pro-inflammatory and chemokine panels, BioAgilytix). For assessment of NK- and T-cell activation, cells were suspended in buffer and incubated with the following monoclonal antibodies: APC-H7 mouse anti–human CD45 (BD Biosciences, cat. #560274), APC mouse anti–human CD69 (BD Biosciences, cat. #555533), BV421 mouse anti–human CD56 (BD Biosciences, cat. #562751), mouse anti–human CD16 PerCP-Cy5.5 (BD Biosciences, cat. #338440), BV510 mouse anti–human CD4 (BD Biosciences, cat. #563094), BV605 mouse anti–human CD8 (BD Biosciences, cat. #564116), and Alexa Fluor 700 anti–mouse CD3 antibody (BioLegend, cat. #100215), prior to assessment by flow cytometry using the BD Scientific FACSCanto flow cytometer (RRID: SCR_018055). Tumor PD-L1 expression level was assessed in paired tumor biopsies using the 22C3 PD-L1 IHC assay; combined positive score (CPS) was calculated for baseline and on-treatment tumor samples. The immune landscape in the tumor microenvironment (TME) was assessed using an integrated RNAscope and 27-marker MultiOmyx immunofluorescence panel.

NK cells and T cells = test: NK- and T-cell activation (CD69+ cells) in peripheral blood by flow cytometry; assay type: in vivo, human
Procedure: Blood samples for subasumstat–SUMO adduct formation and SUMO2/3 inhibition assessments were collected before dose and at 1, 4, and 8 hours after the infusion on C1D1 and C1D8. Blood samples for additional biomarker analyses were collected before dose on C1D1 and C1D8 and at 4, 8, and 24 hours after infusion on C1D1 and C1D8. Skin biopsies (used as surrogate tissue for solid tumors) were collected at screening and on C1D8 at 2 hours (±30 minutes) after end of infusion, and tumor biopsies were collected at screening and cycle 2 day 8 (C2D8; +7 days; whenever possible). […] Activation of the IFNI pathway was assessed in peripheral blood by analysis of gene expression data (PanCancer IO 360 panel by NanoString for phase I and whole-transcriptome RNA sequencing data for phase II). […] These seven IFNI-regulated genes were selected prior to the trial, based on in vitro studies of the effect of subasumstat on human blood from 10 healthy donors analyzed on the NanoString PanCancer IO 360 panel. Plasma chemokines and cytokines were measured using the MesoScale Discovery platform (pro-inflammatory and chemokine panels, BioAgilytix). […] Tumor PD-L1 expression level was assessed in paired tumor biopsies using the 22C3 PD-L1 IHC assay; combined positive score (CPS) was calculated for baseline and on-treatment tumor samples. […]

[2] = cited from earlier work
[3] = system: tumor microenvironment (TME); design: method as in PMID 37389981; details: intratumor microdosing; cited from earlier work
macrophages and NK cells = system: macrophages and NK cells; design: method as in PMID 35226739; details: IFNI-dependent innate immune activation; cited from earlier work
relapsed/refractory NHL = system: relapsed/refractory NHL; design: method as in ref 19 = [19]; 19. Assouline S , Mehta A , Phillips T , Alinari L , Danilov AV , Doucet S , . TAK-981, a first-in-class SUMO-activating enzyme inhibitor, combined with rituximab in adult patients (Pts) with CD20-pos; details: in combination with rituximab; 24 patients with relapsed/refractory NHL; cited from earlier work
[4] = phase II NSCLC expansion cohort
[5] = phase II cervical cancer expansion cohort

Structure (SMILES): Cc1sc(C(=O)c2cncnc2N[C@@H]2C[C@H](COS(N)(=O)=O)[C@@H](O)C2)cc1[C@@H]1NCCc2ccc(Cl)cc21 [subasumstat]
- Patients with confirmed PR ([1]; 99 response-evaluable patients, both phases, 40, 90 and 120 mg twice weekly): three
- Patients with confirmed PR ([1]; overall): 3%
- Best response of SD ([1]; overall, 26 patients): 26.3%
- DCR ([1]; overall, n = 29/99, 20.57–39.29): 29.3%
- DCR ([1]; phase I, n = 21/75, 18.24–39.56): 28%
- Median progression-free survival [1, 4]: 6.06 months
- Patients with best response of SD [1, 4]: four of seven
- Median progression-free survival [1, 5]: 3.78 months
- Patients with best response of SD [1, 5]: two of three
- DCR ([1]; phase II, n = 8/24, 15.63–55.32): 33%
- Duration of SUMO2/3 inhibition (SUMO2/3 conjugates; peripheral blood lymphocytes): at least 8 hours
- Time to SUMO2/3 inhibition after end of infusion (SUMO2/3 conjugates; peripheral blood lymphocytes): ≤ 1 h
- Dose from which SUMO2/3 inhibition was observed (SUMO2/3 conjugates; peripheral blood lymphocytes, dose-dependent): ≥ 40 mg
- SUMO2/3 inhibition in tumor samples (SUMO2/3 conjugates; post-dose tumor samples, except two MSS colorectal cancer and one NSCLC patient): observed in most post-dose samples
- Dose from which reduced SUMO2/3 levels were observed in skin (SUMO2/3 conjugates; skin biopsies on C1D8): ≥ 60 mg
- Time of peak CD69+ effect after infusion (NK cells and T cells; C1D1 and C1D8): 24 h
- Dose from which percentage of CD69+ NK and T cells increased (NK cells and T cells; peripheral blood, both dose schedules and study phases): ≥ 60 mg
- Lymphopenia ([2]; A20 lymphoma–bearing BALB/c mice): transient lymphopenia
- B-cell depletion ([2]; mouse model of pancreatic ductal adenocarcinoma): transient B-cell depletion
- Systemic toxicities ([2]; preclinical mouse models): No systemic toxicities were observed
- Modulation of the TME [3]: modulate the TME from an immune-suppressive to an immune-permissive status
- Killing of tumor cell targets (macrophages and NK cells): enhanced killing of tumor cell targets
- ORR (relapsed/refractory NHL): 29%
